Test results as given in patent US20230322785A1, “ADENOSINE A2A AND A2B RECEPTOR DUAL ANTAGONISTS FOR IMMUNO-ONCOLOGY” (Merck Sharp & Dohme LLC, priority 2020, published 2023).

target: T1, human A2A adenosine receptor (Homo sapiens, UniProt P29274); assay: A2A binding affinity, Method (A): radioligand filtration binding with [3H]SCH58261; details: membranes of HEK293 or CHO cells expressing the human receptor
T1 construct: expressed in transfected cells; host or cells: HEK293 or CHO cells
Excerpt: Method (A) describes the procedure used to measure A2A binding affinity using radioligand binding. Method (B) describes the procedure used to measure A2A binding affinity using SPA technology. The method used to measure A2B binding affinity is also described below. The method used to determine the A2A IC50 value reported for each compound in the table is indicated next to the reported value. The A2B IC50 value measured using the A2B binding affinity assay is shown in the table next to the compound under the corresponding A2A value.
The A2A receptor affinity binding assay measured the amount of binding of a tritiated ligand with high affinity for the A2A adenosine receptor to membranes made from HEK293 or CHO cells recombinantly expressing the human A2A adenosine receptor, in the presence of varying concentrations of a compound of the invention. The data were generated using either filtration binding or a homogenous scintillation proximity assay (SPA).
Method (A): Measurement of A2A Binding Affinity Using Radioligand Binding
148 µL (5 µg/mL) membranes (Perkin Elmer, Cat. No. RBHA2aM400UA) and 2 µL compounds of the invention to be tested (test compound) were transferred to individual wells of a 96-well polypropylene assay plate and incubated for 15 to 30 min at room temperature. [^3H] SCH58261 ((7-(2-phenylethyl)-5-amino-2-(2-furyl)-pyrazolo-[4,3-e]-1,2,4-triazolo[1,5-c]pyrimidine)) was diluted in assay buffer (50 mM Tris pH 7.4, 10 mM MgCl2, 0.005% Tween20) to a concentration of 4 nM and 50 µL transferred to each well of the assay plate. To define total and non-specific binding, wells containing 1% DMSO and 1 µM ZM241385 (Tocris Bioscience, Cat. No. 1036) respectively, were also included. The assay plate was incubated at room temperature for 60 min with agitation. Using a FilterMate Harvester® (Perkin Elmer), the contents of the assay plate were filtered through a UniFilter-96® PEI coated plate (Perkin Elmer Cat. No. 6005274 or 6005277). Filtering was achieved by aspirating the contents of the assay plate for 5 sec, then washing and aspirating the contents three times with ice-cooled wash buffer (50 mM Tris-HCl pH 7.4, 150 mM NaCl) and allowing the vacuum manifold to dry the plate for 30 sec. The filter plate was incubated for at least 1 h at 55° C. and allowed to dry. The bottom of the filter plate was sealed with backing tape. 40 µL Ultima Gold™ (Perkin Elmer, Cat. No. 6013329) was added to each well of the filter plate and the top of the plate was sealed with TopSeal-A PLUS® clear plate seal (Perkin Elmer, Cat. No. 6050185). The plate was incubated for at least 20 min, and then the amount of radioactivity remaining in each well was determined using a TopCount® (Perkin Elmer) scintillation counter. After normalization to total and non-specific binding, the percent effect at each compound concentration was calculated. The plot of percent effect versus the log of compound concentration was analyzed electronically using a 4-parameter logistic fit based on the Levenberg-Marquardt algorithm to generate IC50 values.

T1 sequence (P29274 whole entry): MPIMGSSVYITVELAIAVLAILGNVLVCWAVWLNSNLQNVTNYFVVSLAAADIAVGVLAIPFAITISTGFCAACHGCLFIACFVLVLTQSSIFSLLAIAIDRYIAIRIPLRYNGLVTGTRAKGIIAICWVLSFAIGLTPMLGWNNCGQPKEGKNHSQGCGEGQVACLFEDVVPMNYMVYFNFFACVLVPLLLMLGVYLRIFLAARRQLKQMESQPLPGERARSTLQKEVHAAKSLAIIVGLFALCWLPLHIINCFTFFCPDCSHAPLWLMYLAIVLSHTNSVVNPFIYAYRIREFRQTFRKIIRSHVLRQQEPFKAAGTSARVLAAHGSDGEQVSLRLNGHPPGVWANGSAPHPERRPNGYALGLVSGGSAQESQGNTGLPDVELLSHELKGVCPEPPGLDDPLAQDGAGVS

Row | IC50 [nM] | Compound
1 | 2.5 | COc1cccc2c1nc(N)n1nc(CN(C)Cc3ccc(S(N)(=O)=O)cc3)nc21 [Example 9.2, 4-((((5-amino-7-methoxy-[1,2,4]triazolo[1,5-c]quinazolin-2-yl)methyl)(methyl)amino)methyl)benzenesulfonamide]
2 | 1.1 | COc1cc(F)cc2c1nc(N)n1nc(CNC(C)(C)c3ccc(C(C)(C)O)cc3)nc21 [Example 11.9, 2-(4-(2-(((5-amino-9-fluoro-7-methoxy-[1,2,4]triazolo[1,5-c]quinazolin-2-yl)methyl)amino)propan-2-yl)phenyl)propan-2-ol]
3 | 1.4 | COc1cccc2c1nc(N)n1nc(CNCc3ccc(S(N)(=O)=O)cc3)nc21 [Example 11.10, 4-((((5-amino-7-methoxy-[1,2,4]triazolo[1,5-c]quinazolin-2-yl)methyl)amino)methyl)benzenesulfonamide]
4 | 3.7 | COc1cccc2c1nc(N)n1nc(CN3CC(n4cccn4)C3)nc21 [Example 11.12, 2-((3-(1H-pyrazol-1-yl)azetidin-1-yl)methyl)-7-methoxy-[1,2,4]triazolo[1,5-c]quinazolin-5-amine]
5 | 9.1 | COc1cccc2c1nc(N)n1nc(CN3CC(c4ccncc4)C3)nc21 [Example 11.14, 7-methoxy-2-((3-(pyridin-4-yl)azetidin-1-yl)methyl)-[1,2,4]triazolo[1,5-c]quinazolin-5-amine]
6 | 12.3 | COc1cccc2c1nc(N)n1nc(CCNC34CC(C(C)(C)O)(C3)C4)nc21 [Example 22.2, 2-(3-((2-(5-amino-7-methoxy-[1,2,4]triazolo[1,5-c]quinazolin-2-yl)ethyl)amino)bicyclo[1.1.1]pentan-1-yl)propan-2-ol]
7 | 4.2 | COc1cccc2c1nc(N)n1nc(CCNc3cnn(C)c3)nc21 [Example 23.2, 7-methoxy-2-(2-((1-methyl-1H-pyrazol-4-yl)amino)ethyl)-[1,2,4]triazolo[1,5-c]quinazolin-5-amine]
8 | 26.5 | COc1cc2nc(N)n3nc(CCNc4cnn(CC(C)(C)O)c4)nc3c2cc1F [Example 24.2, 1-(4-((2-(5-amino-9-fluoro-8-methoxy-[1,2,4]triazolo[1,5-c]quinazolin-2-yl)ethyl)amino)-1H-pyrazol-1-yl)-2-methylpropan-2-ol]
9 | 0.9 | COc1cccc2c1nc(N)n1nc(CCN(C)c3cnn(C)c3)nc21 [Example 24.4, 7-methoxy-2-(2-(methyl(1-methyl-1H-pyrazol-4-yl)amino)ethyl)-[1,2,4]triazolo[1,5-c]quinazolin-5-amine]
10 | 6.4 | COc1cc(F)cc2c1nc(N)n1nc(CCN3Cc4cnc(C(C)C)n4CC3=O)nc21 [Example 26.3, 7-(2-(5-amino-9-fluoro-7-methoxy-[1,2,4]triazolo[1,5-c]quinazolin-2-yl)ethyl)-3-isopropyl-7,8-dihydroimidazo[1,5-a]pyrazin-6(5H)-one]
